Laboratory results: ChEMBL document CHEMBL4145624, “MDN-0185, an Antiplasmodial Polycyclic Xanthone Isolated from Micromonospora sp. CA-256353” (J Nat Prod, 2018)

System: Plasmodium falciparum
Experiment: Antiplasmodial activity against late-ring/early trophozoite intraerythrocytic stage of synchronized Plasmodium falciparum 3D7 after 72 hrs by LDH assay
Assay type: functional, organism-based
Conditions: 3D7, 72 h

- IC50: 9 nM
Structure (SMILES): Cc1cc2c(c(=O)[nH]1)C(=O)[C@]1(O)c3c(O)c4c(c5c3[C@@H](C[C@@H]1C2=O)OCO5)O[C@@H]1[C@H](O)C=CC[C@H]1C4=O
